Measured values from US7258872B1, “Chromone enteric release formulation” (Thornton & Ross Limited, priority 1998, dated 2007).

How the values were obtained:
[1] = Solubility of sodium cromoglycate in water; assay type: physicochemical
Source text: Water may be used without additional binder or surfactant.

[2] = cited from earlier work
[3] = test system: B lymphocytes; conditions: cited from earlier work

## O=C(O)c1cc(=O)c2c(OCC(O)COc3cccc4oc(C(=O)O)cc(=O)c34)cccc2o1 [sodium cromoglycate]
[1]
  freely soluble up to: up to 5%
  soluble with difficulty up to: up to 10%
[2]; acid medium / gastric fluid
  solubility in acid: insoluble in an acid medium
[2]; model assumption
  lipid solubility: lipid insoluble
  water solubility: water soluble
[3]
  effect on IgE synthesis by B lymphocytes: reduce the ability of IgE-producing cells, the B lymphocytes, to synthesise IgE antibody
